{"source": "patent US5314887A", "about": "“2-amino-1, 4-dihydropyridine derivatives with calcium agonist and alpha -antagonist activity” (The Du Pont Merck Pharmaceutical Company, priority 1992, dated 1994)", "key": {"[1]": {"target": "T1, Ca^2+ channel (rat cardiac microsomes) (Rattus norvegicus, UniProt P22002)", "T1 construct": "The reaction mixture contained rat cardiac microsomes; from tissue; host or cells: rat heart (cardiac microsomes)", "T1 sequence (P22002 whole entry, other chains not shown)": "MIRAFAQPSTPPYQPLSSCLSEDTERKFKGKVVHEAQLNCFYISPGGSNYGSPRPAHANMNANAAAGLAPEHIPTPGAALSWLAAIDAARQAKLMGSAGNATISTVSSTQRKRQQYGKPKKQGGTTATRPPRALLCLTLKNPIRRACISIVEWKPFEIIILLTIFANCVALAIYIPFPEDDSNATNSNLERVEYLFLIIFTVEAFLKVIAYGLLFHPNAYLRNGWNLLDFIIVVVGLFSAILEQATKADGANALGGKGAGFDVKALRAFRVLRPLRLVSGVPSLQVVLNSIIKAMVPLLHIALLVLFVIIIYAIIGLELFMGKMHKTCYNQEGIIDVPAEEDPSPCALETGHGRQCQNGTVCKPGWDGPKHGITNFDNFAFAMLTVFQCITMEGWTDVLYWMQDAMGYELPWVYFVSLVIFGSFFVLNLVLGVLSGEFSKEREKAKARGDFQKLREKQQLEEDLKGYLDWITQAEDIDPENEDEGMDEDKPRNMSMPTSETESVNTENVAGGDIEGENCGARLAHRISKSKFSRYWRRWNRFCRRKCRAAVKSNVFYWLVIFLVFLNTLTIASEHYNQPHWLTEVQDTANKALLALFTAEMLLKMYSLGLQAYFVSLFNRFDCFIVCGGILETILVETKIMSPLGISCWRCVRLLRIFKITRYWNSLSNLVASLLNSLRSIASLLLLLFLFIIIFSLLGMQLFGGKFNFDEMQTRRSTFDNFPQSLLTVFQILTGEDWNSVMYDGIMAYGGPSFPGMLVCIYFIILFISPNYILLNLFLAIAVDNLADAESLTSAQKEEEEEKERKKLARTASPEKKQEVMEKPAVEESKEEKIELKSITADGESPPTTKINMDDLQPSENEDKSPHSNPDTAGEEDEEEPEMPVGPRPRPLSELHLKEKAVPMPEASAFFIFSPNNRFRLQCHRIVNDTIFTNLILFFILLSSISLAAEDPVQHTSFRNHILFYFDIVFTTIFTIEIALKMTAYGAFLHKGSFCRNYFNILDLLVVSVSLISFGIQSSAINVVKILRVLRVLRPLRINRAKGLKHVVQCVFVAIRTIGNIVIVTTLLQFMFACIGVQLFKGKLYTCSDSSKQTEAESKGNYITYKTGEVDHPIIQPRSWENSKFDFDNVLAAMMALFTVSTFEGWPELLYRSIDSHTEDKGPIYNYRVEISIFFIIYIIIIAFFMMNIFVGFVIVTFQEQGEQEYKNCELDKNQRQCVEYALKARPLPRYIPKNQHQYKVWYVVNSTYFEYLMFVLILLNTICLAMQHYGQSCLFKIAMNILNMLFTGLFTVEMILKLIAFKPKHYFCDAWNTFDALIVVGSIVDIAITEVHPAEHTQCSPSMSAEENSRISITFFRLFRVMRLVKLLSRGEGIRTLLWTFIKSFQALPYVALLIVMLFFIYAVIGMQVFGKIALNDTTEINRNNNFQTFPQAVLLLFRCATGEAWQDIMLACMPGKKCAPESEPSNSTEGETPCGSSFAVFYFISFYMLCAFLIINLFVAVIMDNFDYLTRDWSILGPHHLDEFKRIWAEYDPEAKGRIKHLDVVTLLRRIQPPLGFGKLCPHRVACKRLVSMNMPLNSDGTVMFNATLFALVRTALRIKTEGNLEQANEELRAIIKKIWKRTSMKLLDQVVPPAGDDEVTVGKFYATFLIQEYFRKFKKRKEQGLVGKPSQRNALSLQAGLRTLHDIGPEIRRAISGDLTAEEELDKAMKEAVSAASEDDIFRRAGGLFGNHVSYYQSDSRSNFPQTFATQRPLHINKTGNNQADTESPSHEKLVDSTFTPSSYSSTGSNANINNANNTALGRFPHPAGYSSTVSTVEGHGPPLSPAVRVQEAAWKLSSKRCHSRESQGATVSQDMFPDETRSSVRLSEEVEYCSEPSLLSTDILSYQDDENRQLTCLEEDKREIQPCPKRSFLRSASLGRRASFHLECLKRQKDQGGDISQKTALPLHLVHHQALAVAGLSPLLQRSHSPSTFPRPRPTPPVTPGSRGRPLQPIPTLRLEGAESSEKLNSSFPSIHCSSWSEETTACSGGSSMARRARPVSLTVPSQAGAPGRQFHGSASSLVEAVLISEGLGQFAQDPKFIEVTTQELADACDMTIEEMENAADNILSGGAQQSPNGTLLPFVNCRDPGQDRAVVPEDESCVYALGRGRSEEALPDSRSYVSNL", "T1 sequence (P54290 25-944 partner limits assumed, other chains not shown)": "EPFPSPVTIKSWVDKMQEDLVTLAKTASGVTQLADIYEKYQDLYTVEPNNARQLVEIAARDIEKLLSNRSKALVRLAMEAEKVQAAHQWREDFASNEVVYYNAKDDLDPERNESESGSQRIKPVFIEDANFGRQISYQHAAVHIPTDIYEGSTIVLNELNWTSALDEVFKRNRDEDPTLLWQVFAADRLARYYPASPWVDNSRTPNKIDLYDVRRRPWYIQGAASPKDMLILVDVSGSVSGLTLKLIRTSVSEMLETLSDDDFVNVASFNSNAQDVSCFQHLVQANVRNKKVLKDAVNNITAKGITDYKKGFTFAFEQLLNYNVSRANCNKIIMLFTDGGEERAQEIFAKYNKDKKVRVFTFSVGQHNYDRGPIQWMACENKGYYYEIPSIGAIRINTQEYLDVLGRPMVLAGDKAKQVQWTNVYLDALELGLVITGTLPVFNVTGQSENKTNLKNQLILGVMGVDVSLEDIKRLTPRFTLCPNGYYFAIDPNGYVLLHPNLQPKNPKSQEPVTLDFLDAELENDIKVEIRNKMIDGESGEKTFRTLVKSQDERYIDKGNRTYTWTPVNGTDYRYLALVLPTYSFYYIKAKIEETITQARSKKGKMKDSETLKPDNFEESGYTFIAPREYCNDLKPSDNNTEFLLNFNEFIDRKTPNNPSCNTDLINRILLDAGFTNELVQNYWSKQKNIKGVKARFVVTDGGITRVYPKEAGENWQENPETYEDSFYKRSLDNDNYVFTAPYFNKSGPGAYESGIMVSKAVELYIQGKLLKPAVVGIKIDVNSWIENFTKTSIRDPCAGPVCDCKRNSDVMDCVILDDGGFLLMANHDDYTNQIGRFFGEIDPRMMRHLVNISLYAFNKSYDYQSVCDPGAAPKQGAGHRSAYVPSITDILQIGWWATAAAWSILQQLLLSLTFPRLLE", "T1 sequence (P54290 945-1091 partner limits assumed, other chains not shown)": "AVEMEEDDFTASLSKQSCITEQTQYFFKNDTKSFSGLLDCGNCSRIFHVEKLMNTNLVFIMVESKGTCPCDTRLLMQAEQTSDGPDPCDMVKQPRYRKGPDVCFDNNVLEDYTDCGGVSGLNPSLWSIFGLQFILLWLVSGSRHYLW", "test": "[3H]-Nitrendipine binding assay (affinity for calcium channels)", "conditions": "0.5 nM [3H]-nitrendipine, Tris buffer, 60 minutes at 25°", "description": "[^3 H]-Nitrendipine binding assay was carried out according to the method described by G. T. Bolger, et al., Biochem. Biophys. Res. Comm. 104, 1604-1609 (1982). The reaction mixture contained rat cardiac microsomes (source of Ca^2+ channels), 0.5 nM [^3 H]-nitrendipinewith or without potential displacer in Tris buffer. The mixture was incubated for 60 minutes at 25° and subsequently terminated by rapid filtration through a glass fiber-filter. Membrane-bound [^3 H]-nitrendipine trapped in the filter was quantitated by scintillation counting. The inhibitory concentration (IC50) of potential displacer which gives 50% displacement of the total specifically bound [^3 H]-nitrendipine is presented as a measure of the affinity of such compound for the Ca^2+ channel."}, "[2]": {"target": "alpha1-adrenoceptor (rat brain membranes)", "test": "[3H]-Prazosin binding assay (affinity for alpha1-adrenoceptors)", "conditions": "0.2 nM [3H]-prazosin, partially purified rat brain membranes, Tris buffer, 60 minutes at 25°", "description": "The [^3 H]-prazosin binding assay was carried out according to the method described by Timmermans, P. B. M. W. M., Schoop, A. M. C., and Van Zwieten, P. A., Biochem. Pharmacol. 31, 899-905 (1982). The reaction mixture contained partially purified rat brain membranes (source of alpha1 -adrenoceptors), 0.2 nM [^3 H]-prazosin with or without potential displacer in Tris buffer. The mixture was incubated for 60 minutes at 25° and subsequently terminated by rapid filtration through glass fiber-filter. Receptor-bound [^3 H]-prazosin trapped in the filter was quantitated by scintillation counting. The inhibitory concentration (IC50) of potential displacer which gives 50% displacement of the total specifically bound [^3 H]-prazosin is presented as a measure of the affinity of such compound for the alpha1 -adrenoceptor."}, "guinea pig left atria": {"tested_on": "guinea pig left atria", "test": "Positive inotropic effect in guinea pig left atria", "conditions": "Cavia porcellus; for EC50: left atria paced at 2 Hz, Krebs bicarbonate, 37°, cumulative addition to maximum 10^-4, read-out: EC50 = concentration that increases DT (developed tension) by 50% above the control DT; for Emax: relative to Bay K8644, expressed in percent, read-out: Intrinsic Activity: ratio of the maximum effect of the test compound to that of Bay K8644", "description": "Guinea pigs are killed by cervical dislocation. The left atria are removed and mounted at 1 gm resting tension in tissue baths containing oxygenated Krebs bicarbonate solution which is kept at 37°. The left atria are electrically paced at 2 Hz with square wave pulses of 1 msec duration. The voltage is set at 1.5×threshold level.\nAfter a one hour equilibration period, control values for developed tension (DT, gm) are recorded. Test compounds are then added to the baths, in a cumulative manner to a maximum concentration of 10^-4, to obtain a concentration-response curve. Treatment values of DT are obtained after the drug effect has reached a plateau and the exposure time for each concentration is 5-8 minutes. Percent change of the treatment value from the control value is calculated at each concentration of the test compound.\n^a EC50 (M) = concentration that increases DT by 50% above the\n^b Intrinsic Activity is a ratio of the maximum effect of the test\ncompound to that of Bay K8644 and expressed in percent."}, "[3]": {"tested_on": "influx of calcium ions into cells", "conditions": "background statement; cited from earlier work"}}, "data": [{"smiles": "COC(=O)C1=C(N)NC(C)=C([N+](=O)[O-])C1c1ccccc1[S+]([O-])CCCN1CCN(c2ccccc2OC)CC1", "note": "(stereo not shown) [Example 12]", "values": [{"measurement": "IC50", "setting": "[1]", "value": 620, "unit": "nM"}, {"measurement": "IC50", "setting": "[2]", "value": 52, "unit": "nM"}, {"measurement": "EC50", "setting": "guinea pig left atria", "value": "> 100000", "unit": "nM"}, {"measurement": "Emax", "setting": "guinea pig left atria", "value": 35, "unit": "%"}]}, {"smiles": "COC(=O)C1=C(N)NC(C)=C([N+](=O)[O-])C1c1ccccc1OCCCCCN1CCN(c2ncccn2)CC1", "note": "(stereo not shown) [Example 3, 2-Amino-1,4-dihydro-4-(2-{5-[4-(2-pyrimidinyl)-1-piperazinyl]-pentyloxy}phenyl)-6-methyl-5-nitro-3-pyridinecarboxylic acid methyl ester]", "values": [{"measurement": "IC50", "setting": "[1]", "value": 930, "unit": "nM"}, {"measurement": "IC50", "setting": "[2]", "value": 160, "unit": "nM"}, {"measurement": "EC50", "setting": "guinea pig left atria", "value": 1000, "unit": "nM"}, {"measurement": "Emax", "setting": "guinea pig left atria", "value": 170, "unit": "%"}]}, {"smiles": "COC(=O)C1=C(N)NC(C)=C([N+](=O)[O-])C1c1ccccc1OCCCCCN1CCN(c2ccccc2OC)CC1", "note": "(stereo not shown) [Example 4, 2-Amino-1,4-dihydro-4-(2-{5-[4-(2-methoxyphenyl)-1-piperazinyl]-pentyloxy}phenyl)-6-methyl-5-nitro-3-pyridinecarboxylic acid methyl ester]", "values": [{"measurement": "IC50", "setting": "[1]", "value": 1600, "unit": "nM"}, {"measurement": "IC50", "setting": "[2]", "value": 3400, "unit": "nM"}, {"measurement": "EC50", "setting": "guinea pig left atria", "value": 1600, "unit": "nM"}, {"measurement": "Emax", "setting": "guinea pig left atria", "value": 128, "unit": "%"}]}, {"smiles": "COC(=O)C1=C(N)NC(C)=C([N+](=O)[O-])C1c1ccccc1SCCCCCN1CCN(c2ccccc2OC)CC1", "note": "(stereo not shown) [Example 11]", "values": [{"measurement": "IC50", "setting": "[1]", "value": 240, "unit": "nM"}, {"measurement": "IC50", "setting": "[2]", "value": 42, "unit": "nM"}, {"measurement": "EC50", "setting": "guinea pig left atria", "value": 2400, "unit": "nM"}, {"measurement": "Emax", "setting": "guinea pig left atria", "value": 112, "unit": "%"}]}, {"smiles": "COC(=O)C1=C(N)NC(C)=C([N+](=O)[O-])C1c1ccccc1[S+]([O-])CCCCCN1CCN(c2ccccc2OC)CC1", "note": "(stereo not shown) [Example 13]", "values": [{"measurement": "IC50", "setting": "[1]", "value": 1300, "unit": "nM"}, {"measurement": "IC50", "setting": "[2]", "value": 25, "unit": "nM"}, {"measurement": "EC50", "setting": "guinea pig left atria", "value": 5200, "unit": "nM"}, {"measurement": "Emax", "setting": "guinea pig left atria", "value": 119, "unit": "%"}]}, {"smiles": "COC(=O)C1=C(N)NC(C)=C([N+](=O)[O-])C1c1ccccc1[S+]([O-])CCCCN1CCN(c2ncccn2)CC1", "note": "(stereo not shown) [Example 8, 2-Amino-1,4-dihydro-4-(2-{4-[4-(2-pyrimidinyl)-1-piperazinyl]-butylsulfinyl}phenyl)-6-methyl-5-nitro-3-pyridinecarboxylic acid methyl ester]", "values": [{"measurement": "IC50", "setting": "[1]", "value": 2300, "unit": "nM"}, {"measurement": "IC50", "setting": "[2]", "value": 2400, "unit": "nM"}, {"measurement": "EC50", "setting": "guinea pig left atria", "value": 500, "unit": "nM"}, {"measurement": "Emax", "setting": "guinea pig left atria", "value": 254, "unit": "%"}]}, {"smiles": "COC(=O)C1=C(N)NC(C)=C([N+](=O)[O-])C1c1ccccc1[S+]([O-])CCCCN1CCN(c2ccccc2OC)CC1", "note": "(stereo not shown) [Example 2, 2-Amino-1,4-dihydro-4-(2-{4-[4-(2-methoxyphenyl)-1-piperazinyl]-butylsulfinyl}phenyl)-6-methyl-5-nitro-3-pyridinecarboxylic acid methyl ester]", "values": [{"measurement": "IC50", "setting": "[1]", "value": 1700, "unit": "nM"}, {"measurement": "IC50", "setting": "[2]", "value": 11, "unit": "nM"}, {"measurement": "EC50", "setting": "guinea pig left atria", "value": 5700, "unit": "nM"}, {"measurement": "Emax", "setting": "guinea pig left atria", "value": 90, "unit": "%"}]}, {"smiles": "COC(=O)C1=C(N)NC(C)=C([N+](=O)[O-])C1c1ccccc1SCCCCN1CCC(C(=O)c2ccc(F)cc2)CC1", "note": "(stereo not shown) [Example 7]", "values": [{"measurement": "IC50", "setting": "[1]", "value": 150, "unit": "nM"}, {"measurement": "IC50", "setting": "[2]", "value": 150, "unit": "nM"}, {"measurement": "EC50", "setting": "guinea pig left atria", "value": 9600, "unit": "nM"}, {"measurement": "Emax", "setting": "guinea pig left atria", "value": 112, "unit": "%"}]}, {"smiles": "COC(=O)C1=C(N)NC(C)=C([N+](=O)[O-])C1c1ccccc1[S+]([O-])CCCCN1CCC(C(=O)c2ccc(F)cc2)CC1", "note": "(stereo not shown) [Example 9]", "values": [{"measurement": "IC50", "setting": "[1]", "value": 2400, "unit": "nM"}, {"measurement": "IC50", "setting": "[2]", "value": 150, "unit": "nM"}, {"measurement": "EC50", "setting": "guinea pig left atria", "value": 10000, "unit": "nM"}, {"measurement": "Emax", "setting": "guinea pig left atria", "value": 56, "unit": "%"}]}, {"smiles": "COC(=O)C1=C(C)NC(C)=C([N+](=O)[O-])C1c1ccccc1C(F)(F)F", "note": "(stereo not shown) [Bay K8644]", "values": [{"measurement": "EC50", "setting": "guinea pig left atria", "value": 150, "unit": "nM"}, {"measurement": "Emax", "setting": "guinea pig left atria", "value": 100, "unit": "%"}, {"measurement": "coronary vasoconstricting properties", "setting": "[3]", "value": "coronary vasoconstricting properties"}, {"measurement": "effect on calcium influx, inotropic and vasoconstrictor effects", "setting": "[3]", "value": "promote an influx of calcium ions into cells, thereby producing positive inotropic and vasoconstrictor effects"}, {"measurement": "potency as a calcium agonist relative to CGP 28392", "setting": "[3]", "value": "more than ten times as potent as CGP 28392"}]}, {"smiles": "COC(=O)C1=C(N)NC(C)=C([N+](=O)[O-])C1c1ccccc1S(=O)(=O)CCCCN1CCN(c2ccccc2OC)CC1", "note": "(stereo not shown) [Example 5, 2-Amino-1,4-dihydro-4-(2-{4-[4-(2-methoxyphenyl)-1-piperazinyl]-butylsulfonyl}phenyl)-6-methyl-5-nitro-3-pyridinecarboxylic acid methyl ester]", "values": [{"measurement": "IC50", "setting": "[1]", "value": 390, "unit": "nM"}, {"measurement": "IC50", "setting": "[2]", "value": 60, "unit": "nM"}, {"measurement": "EC50", "setting": "guinea pig left atria", "value": 1500, "unit": "nM"}, {"measurement": "Emax", "setting": "guinea pig left atria", "value": 119, "unit": "%"}]}, {"smiles": "COC(=O)C1=C(N)NC(C)=C([N+](=O)[O-])C1c1ccccc1SCCCCN1CCN(c2ncccn2)CC1", "note": "(stereo not shown) [Example 6]", "values": [{"measurement": "IC50", "setting": "[1]", "value": 400, "unit": "nM"}, {"measurement": "IC50", "setting": "[2]", "value": 4500, "unit": "nM"}, {"measurement": "EC50", "setting": "guinea pig left atria", "value": 47, "unit": "nM"}, {"measurement": "Emax", "setting": "guinea pig left atria", "value": 113, "unit": "%"}]}, {"smiles": "CCOC(=O)C1=C(C)NC2=C(C(=O)OC2)C1c1ccccc1OC(F)F", "note": "(stereo not shown) [CGP 28392]", "values": [{"measurement": "effect on calcium influx, inotropic and vasoconstrictor effects", "setting": "[3]", "value": "promote an influx of calcium ions into cells, thereby producing positive inotropic and vasoconstrictor effects"}]}, {"smiles": "COC(=O)C1=C(N)NC(C)=C([N+](=O)[O-])C1c1ccccc1SCCCN1CCN(c2ccccc2OC)CC1", "note": "(stereo not shown) [Example 10]", "values": [{"measurement": "IC50", "setting": "[1]", "value": 300, "unit": "nM"}, {"measurement": "IC50", "setting": "[2]", "value": 80, "unit": "nM"}, {"measurement": "EC50", "setting": "guinea pig left atria", "value": 3500, "unit": "nM"}, {"measurement": "Emax", "setting": "guinea pig left atria", "value": 115, "unit": "%"}]}, {"smiles": "COC(=O)C1=C(N)NC(C)=C([N+](=O)[O-])C1c1ccccc1SCCCCN1CCN(c2ccccc2OC)CC1", "note": "(stereo not shown) [Example 1, 2-Amino-1,4-dihydro-4-(2-{4-[4-(2-methoxyphenyl)-1-piperazinyl]-butylthio}phenyl)-6-methyl-5-nitro-3-pyridinecarboxylic acid methyl ester]", "values": [{"measurement": "IC50", "setting": "[1]", "value": 520, "unit": "nM"}, {"measurement": "IC50", "setting": "[2]", "value": 60, "unit": "nM"}, {"measurement": "EC50", "setting": "guinea pig left atria", "value": 550, "unit": "nM"}, {"measurement": "Emax", "setting": "guinea pig left atria", "value": 166, "unit": "%"}]}]}
